Tested on: ERK and CREB activities (pERK1/2, pCREB)
Test: ERK and CREB activities in brains of mice subjected to MCAO (WB)
Assay type: in vivo, mouse
Conditions: WT mice; peptide ip 15 min before MCAO or sham
Method: FIGS. 7I-7K show the effects of TAT-EE3 and Trpm2 deletion on ERK and CREB activities in mice subjected to MCAO. […] TAT-EE3 or TAT-SC was ip administrated to WT mice 15 min before MCAO or sham surgeries. FIGS. 7J and 7K show the quantification of pERK1/2 and pCREB expressed in the brains after MCAO or sham procedure (***, p<0.001; ANOVA, Bonferroni's test; mean±SEM, n=4/group).
Eight-to nine-week-old male mice (˜25 g) were subjected to right middle cerebral artery occlusion (MCAO) for 120 min followed by 24 hours of reperfusion. The genotype information was blinded to the surgeon who conduct the surgeries. […] Mouse body temperature was monitored by a rectal temperature probe and maintained at ˜ 37° C. with an automatic temperature-regulating heating pad connected to animal temperature controller (TCA T-2DF, Physitemp). Cerebral blood flow was monitored after occlusion as well as after reperfusion. […] Successful occlusion was confirmed by 85% reduction of cerebral blood flow monitored by Laser Doppler Flowmetry (LDF) with laser Doppler blood FlowMeter (Moor-VMS-LDF1, Moor Instrument, Dever, UK). […]
NP-40/Triton lysis buffer ([…], 1% Triton™ X-100, 150 mM NaCl, 1 mM EDTA, 50 mM Tris, pH=8.0) containing proteinase inhibitors and phosphatase inhibitors was used to lyse both cultured cells and frozen brain tissue. […] Protein concentration was measured using Pierce™ Rapid Gold BCA Protein Assay Kit. […]

Q: With “TAT-EE3: membrane permeable disrupting peptide, sequence YGRKKRRQRRREEDTDSSEEMLALAEE (SEQ ID NO: 4)” as the substance, how does the “pCREB level in MCAO brains vs sham control brains” value read?
A: The value was “no reduction”.

Q: What about the “pERK1/2 level in MCAO brains vs sham control brains” value of the same substance?
A: Its value is “no reduction”.

Source: US20250235501A1, “Methods and Compositions for Treating or Preventing Neurological Injury or Neurological Disorders” (University of Connecticut, priority 2024, published 2025)
